Where two headings read alike, the source gives them in different places.
Legend:
[1] = system: HCV replicon, sub-genomic CON1, genotype 1b; experiment: 3-day HCV replicon assay in AVA5 cells (intracellular HCV RNA, blot hybridization); format: cell-based, Hepatitis C Virus; details: for Selectivity Index / EC50 / EC90: Genotype 1b replicon; for Selectivity Index: CC50/EC50; for EC50 / EC90: 3 days, first compound listed for combinations
Procedure: (§1) Antiviral activity of test compounds was assessed in a 3-day assay using the stably-expressing HCV replicon cell line, AVA5 (sub-genomic CON1, genotype 1b) (Blight et al., 2000) maintained as sub-confluent cultures on 96-well plates as previously described (Okuse et al., 2005). Antiviral activity was determined by blot hybridization analysis of intracellular HCV RNA (normalized to the level of cellular B-actin RNA in each culture sample) and cytotoxicity was assessed by neutral red dye uptake after 3 days of treatment. Additional studies were performed using Huh7 cells containing another HCV replicon, H/FL-Neo, a genotype 1a full length construct (Blight et al., 2003). For studies involving human serum, standard culture medium (which contains 10% fetal bovine serum) and assay conditions were maintained.
(§2) EC50, EC90 and CC50 values (±standard deviations [S.D.]) were calculated by linear regression analysis using data combined from all treated cultures (Korba and Gerin, 1992; Okuse et al., 2005). […] Selectivity index (S.I.) was calculated as CC50/EC90 for HBV assays and CC50/EC50 for HCV assays. EC90 values were used for calculation of the S.I. in HBV assays since at least a […] depression of HBV DNA levels is typically required to achieve statistical significance in this assay system (Korba and Gerin, 1992). For combination treatments, EC50, EC90, CC50 and S.I. are presented for the first compound listed. The molar ratio of the compounds in each combination is also indicated.

[2] = Cytotoxicity by neutral red dye uptake in Huh7 cells containing H/FL-Neo; format: cell-based; details: human; Genotype 1a replicon
[3] = system: HCV replicon H/FL-Neo, genotype 1a full length; experiment: HCV replicon assay in Huh7 cells containing H/FL-Neo; format: cell-based, Hepatitis C Virus; details: for EC50 / EC90: Hepatitis C virus, Huh-7
Procedure: as §1, §2

[4] = system: HCV replication; experiment: HCV replicon assay, 6 days total duration, NTZ monotherapy pre-treatment and combination therapy; format: cell-based; details: Hepatitis C virus, 144 h, first named drug for combinations
Procedure: as §1, with “Antiviral activity of test compounds was assessed in a 3-day assay using the stably-expressing” left out
as §2

[5] = Cytotoxicity by neutral red dye uptake in AVA5 cells; format: cell-based; details: human, Genotype 1b replicon
[6] = system: HCV replicon genotype 1A; experiment: Secondary HCV replicon cell assay, genotype 1A; format: cell-based, Hepatitis C Virus
Source text: (§3) Table 10 presents data from the secondary HCV replicon cell assays using genotypes 1B and 1A.

[7] = system: HCV replicon cells, genotype 1A; experiment: Secondary HCV replicon cell assay, genotype 1A, cytotoxicity; format: cell-based
Source text: as §3

[8] = Primary HCV replicon cell assay, cytotoxicity; details: human, HCV replicon cells (primary assay), CC50, primary assay
Procedure: as §1, §2

[9] = system: HCV replicon; experiment: Primary HCV replicon cell assay; format: cell-based, Hepatitis C Virus; details: Hepatitis C virus
Procedure: as §1, §2

[10] = system: HCV replicon cells, genotype 1B; experiment: Secondary HCV replicon cell assay, genotype 1B, cytotoxicity; format: cell-based
Source text: as §3

[11] = system: HBV; experiment: HBV antiviral assay in confluent 2.2.15 cell cultures (HBV DNA, quantitative blot hybridization); format: cell-based, Hepatitis B Virus
Procedure: EC50, EC90 and CC50 values (±standard deviations [S.D.]) were calculated by linear regression analysis using data combined from all treated cultures (Korba and Gerin, 1992; Okuse et al., 2005). […] Selectivity index (S.I.) was calculated as CC50/EC90 for HBV assays and CC50/EC50 for HCV assays. EC90 values were used for calculation of the S.I. in HBV assays since at least a 3-fold depression of HBV DNA levels is typically required to achieve statistical significance in this assay system (Korba and Gerin, 1992).

[12] = system: HCV replicon genotype 1B; experiment: Secondary HCV replicon cell assay, genotype 1B; format: cell-based, Hepatitis C Virus
Source text: as §3

[13] = Cytotoxicity by neutral red dye uptake in 2.2.15 cells; details: human
Procedure: (§4) HBV antiviral assays were conducted as previous described (Korba and Gerin, 1992).
as §2

[14] = system: HBV Mutant M204V; experiment: 5-day transient transfection assay in Huh7 cells, intracellular HBV RI by Southern blot; format: cell-based, Hepatitis B Virus
Procedure: (§5) Activity against LMV-resistant (Allen et al., 1998) and ADV-resistant (Angus et al., 2003) HBV mutants was performed in a 5-day assay using a transient transfection method as previously described (Iyer et al., 2004). Antiviral activity was determined by quantitative Southern blot hybridization of intracellular HBV DNA replication intermediates (HBV RI).

[15] = system: HBV Mutant M204I; experiment: as above; format: cell-based, Hepatitis B Virus
Procedure: as §5

[16] = system: HBV Mutant L180M/M204V; experiment: as above; format: cell-based, Hepatitis B Virus
Procedure: as §5

[17] = system: HBV Mutant L180M; experiment: as above; format: cell-based, Hepatitis B Virus
Procedure: as §5

[18] = system: HBV Mutant N236T; experiment: as above; format: cell-based, Hepatitis B Virus
Procedure: as §5

[19] = system: HBcAg; experiment: Semi-quantitative EIA of HBV proteins in 2.2.15 intracellular lysates; format: cell-based, Hepatitis B Virus
Procedure: (§6) Cultures of 2.2.15 cells were treated under standard procedures and semi-quantitative EIA-based analysis of HBV proteins was performed as previously described (Korba and Gerin, 1995), except that HBeAg was analyzed ETI-EBK Plus® (DiaSorin, Inc., Stillwater, Minn. USA). Samples were diluted (2 to 10-fold) to bring levels into the dynamic response ranges of the EIA's. HBsAg, and HBeAg were analyzed from culture medium samples and HBcAg was analyzed from intracellular lysates. Intracellular HBV RNA was assessed by quantitative northern blot hybridization (Korba and Gerin, 1995).

[20] = system: HBV RNA; experiment: Intracellular HBV RNA by quantitative northern blot hybridization in 2.2.15 cells; format: cell-based, Hepatitis B Virus
Procedure: as §6

[21] = system: HBeAg; experiment: Semi-quantitative EIA of HBV proteins in 2.2.15 culture medium; format: cell-based, Hepatitis B Virus
Procedure: as §6

[22] = system: HBsAg; experiment: as above; format: cell-based, Hepatitis B Virus
Procedure: as §6

[23] = system: 2.2.15 cells; experiment: Cytotoxicity by neutral red dye uptake in 2.2.15 cells
Procedure: as §4, §2

[24] = oral 500 mg tablet; cited from earlier work
[25] = system: Wild-type HBV; experiment: 5-day transient transfection assay in Huh7 cells, intracellular HBV RI by Southern blot; format: cell-based, Hepatitis B Virus
[26] = system: LMV-resistant and ADV-resistant HBV mutants; experiment: Activity against drug-resistant HBV mutants, transient transfection in Huh7 cells (overall statement); format: cell-based, Hepatitis B Virus; details: all drug-resistant viruses tested
Procedure: as §5

[27] = system: AVA5 cells; experiment: Cytotoxicity by neutral red dye uptake in AVA5 cells; format: cell-based; details: Genotype 1b replicon, 3 days
[28] = AVA5 cells (HCV replicon, sub-genomic CON1)
[29] = Hepatitis B virus, read-out: Intracellular HBV RI EC50
[30] = Hepatitis B virus, 2.2.15 cells, nine daily doses, read-out: Extracellular virion DNA EC50

C[C@@]1(O)[C@H](O)[C@@H](CO)O[C@H]1n1ccc(N)nc1=O [2′CmeC, 2′-C-methyl cytidine]
Selectivity Index [1]: >188
EC50 ([1]; Hepatitis C virus, Ava5, 72 h): 1600 ± 200 nM
EC90 ([1]; Hepatitis C virus, Ava5, 72 h): 8300 ± 700 nM
CC50 at 3 days [2]: > 300000 nM
Selectivity Index ([3]; Genotype 1a replicon, CC50/EC50): >167
EC50 ([3]; Genotype 1a replicon): 1800 ± 200 nM
EC90 ([3]; Genotype 1a replicon): 8100 ± 800 nM
EC50 [4]: 1300 ± 200 nM
EC90 [4]: 5800 ± 900 nM
CC50 at 3 days [5, 28]: > 300000 nM

CS(=O)(=O)c1cnc(NC(=O)c2ccccc2O)s1 [Compound 6, 2-hydroxy-N-(5-(methylsulfonyl)thiazol-2-yl)benzamide]
EC50 [6]: 800 nM
EC90 [6]: 3400 nM
Selectivity Index [1]: 74
EC50 ([1]; Hepatitis C virus, Ava5, 72 h): 40 ± 5 nM
EC90 ([1]; Hepatitis C virus, Ava5, 72 h): 590 ± 70 nM
activity against HCV ([1]; among the other thiazolides): exhibited activity
CC50 [7]: > 10000 nM
CC50 at 3 days [8]: 43000 nM
EC50 [9]: 1500 nM
EC90 [9]: 5200 nM
CC50 [10]: > 10000 nM
EC50 [11, 29]: > 10000 nM
EC50 [11, 30]: > 10000 nM
EC90 ([11]; Hepatitis B virus, 2.2.15 cells, nine daily doses, read-out: Extracellular virion DNA EC90): > 10000 nM
EC90 ([11]; Hepatitis B virus, 2.2.15 cells, nine daily doses, read-out: Intracellular HBV RI EC90): > 10000 nM
EC50 [12]: 890 nM
EC90 ([12]; Hepatitis C virus): 8800 nM
CC50 at 9 days [13]: > 100000 nM
CC50 at 3 days [5, 28]: 2800 ± 300 nM

CC(=O)Oc1ccccc1C(=O)Nc1ncc([N+](=O)[O-])s1 [NTZ, nitazoxanide]
EC50 ([14]; Hepatitis B virus, Huh-7): 150 ± 20 nM
EC90 ([14]; Hepatitis B virus, Huh-7): 700 ± 80 nM
EC50 ([15]; Hepatitis B virus, Huh-7): 310 ± 50 nM
EC90 ([15]; Hepatitis B virus, Huh-7): 1000 ± 200 nM
EC50 ([16]; Hepatitis B virus, Huh-7): 180 ± 20 nM
EC90 ([16]; Hepatitis B virus, Huh-7): 720 ± 90 nM
EC50 ([17]; Hepatitis B virus, Huh-7): 230 ± 30 nM
EC90 ([17]; Hepatitis B virus, Huh-7): 800 ± 90 nM
EC50 ([18]; Hepatitis B virus, Huh-7): 280 ± 30 nM
EC90 ([18]; Hepatitis B virus, Huh-7): 850 ± 100 nM
EC50 ([1]; Hepatitis C virus, Ava5, 72 h): 210 ± 30 nM
EC90 ([1]; Hepatitis C virus, Ava5, 72 h): 930 ± 110 nM
CC50 at 3 days [2]: 49000 ± 1500 nM
EC50 ([19]; read-out: HBcAg EC50, 2.2.15 cells): 1100 ± 100 nM
EC90 ([19]; read-out: HBcAg EC90, 2.2.15 cells): 3000 ± 200 nM
effect on intracellular HBV RNA (Northern blot hybridization) [20]: did not induce a reduction
EC50 [11, 29]: 590 ± 70 nM
EC50 ([11]; Hepatitis B virus, 2.2.15 cells, Table 3 experiment, read-out: HBV R.I. EC50): 730 ± 60 nM
EC90 ([11]; Hepatitis B virus, 2.2.15 cells, Table 3 experiment, read-out: HBV R.I. EC90): 2200 ± 300 nM
EC50 ([11]; Hepatitis B virus, 2.2.15 cells, Table 3 experiment, read-out: Virion production EC50): 190 ± 20 nM
EC90 ([11]; Hepatitis B virus, 2.2.15 cells, Table 3 experiment, read-out: Virion production EC90): 580 ± 40 nM
EC50 [11, 30]: 120 ± 20 nM
EC50 ([21]; read-out: HBeAg EC50, 2.2.15 cells): 260 ± 20 nM
EC90 ([21]; read-out: HBeAg EC90, 2.2.15 cells): 1300 ± 100 nM
EC50 ([22]; read-out: HBsAg EC50, 2.2.15 cells): 220 ± 30 nM
EC90 ([22]; read-out: HBsAg EC90, 2.2.15 cells): 1000 ± 100 nM
cytotoxicity in rapidly dividing cultures of 2.2.15 cells ([23]; rapidly dividing cultures): 20 ± 1.3 µM
CC50 at 9 days [13]: > 100000 nM
detection in plasma [24]: not detected
antiviral activity against full length genotype 1a replicon compared with AVA5 cells (genotype 1b) [3]: equivalent
EC50 ([3]; Genotype 1a replicon): 330 ± 50 nM
EC90 ([3]; Genotype 1a replicon): 1100 ± 100 nM
EC50 [4]: 200 ± 20 nM
EC90 [4]: 920 ± 100 nM
EC50 ([25]; Hepatitis B virus, Huh-7): 210 ± 30 nM
EC90 ([25]; Hepatitis B virus, Huh-7, Wild-type, Huh7 transient transfection): 770 ± 90 nM
CC50 at 3 days [5]: 38000 ± 1800 nM

Cc1ccc(O)c(C(=O)Nc2ncc(Cl)s2)c1 [RM4850]
EC50 ([14]; M204V, read-out: EC50): 800 ± 100 nM
EC90 ([14]; M204V, read-out: EC90): 2100 ± 300 nM
EC50 ([15]; M204I, read-out: EC50): 1000 ± 200 nM
EC90 ([15]; M204I, read-out: EC90): 2400 ± 300 nM
EC50 ([16]; L180M/M204V, read-out: EC50): 870 ± 110 nM
EC90 ([16]; L180M/M204V, read-out: EC90): 2100 ± 300 nM
EC50 ([17]; L180M, read-out: EC50): 830 ± 90 nM
EC90 ([17]; L180M, read-out: EC90): 2200 ± 200 nM
EC50 ([18]; N236T, read-out: EC50): 670 ± 80 nM
EC90 ([18]; N236T, read-out: EC90): 2200 ± 200 nM
EC50 [1]: > 20000 nM
EC90 [1]: > 20000 nM
EC50 ([11]; 2.2.15 cells, nine daily doses, read-out: Extracellular virion DNA EC50): 330 ± 70 nM
EC90 ([11]; 2.2.15 cells, nine daily doses, read-out: Extracellular virion DNA EC90): 830 ± 100 nM
EC50 ([11]; 2.2.15 cells, nine daily doses, read-out: Intracellular HBV RI EC50): 900 ± 100 nM
differences in potency against drug-resistant viruses relative to wild-type HBV [26]: No significant differences
CC50 ([23]; confluent 2.2.15 cultures, nine daily doses, neutral red uptake): > 100000 nM
EC90 ([25]; Wild-type, Huh7 transient transfection): 2000 ± 300 nM
EC50 ([25]; Wild-type, Huh7 transient transfection, read-out: EC50): 730 ± 80 nM
CC50 [27]: 2300 ± 200 nM

— patent US8895752B2, “Alkylsulfonyl-substituted thiazolide compounds” (priority 2007, dated 2014)
